Several values for one entry are separate records, joined by “and”; a condition that tells them apart may be missing. Equal values may be shown once. Read-outs that look alike come from different tables or passages of the source.
What was measured:
[1] = test system: whole blood aggregation, Ristocetin; test: Whole blood aggregation (Multiplate) RISTO test before and one hour after oral betaine (Example 11); type: in vivo, human (patients); conditions: for Ristocetin aggregation (AUC): individual patients (one line per patient), one hour after 4 g betaine oral, on aspirin 100 mg/day
Method: (§1) 20 patients attending Hospital cardiovascular consultation were enrolled for the study. Patients were all on 100 mg/day aspirin for their cardiovascular protection. Necessary ethical clearance was obtained from Hospital IRB.
(§2) Whole blood aggregation profile using Multiplate® instrument was assessed for each patient before and one hour after oral administration of 4 g of betaine. Blood was sampled on hirudin as anticoagulant.
(§3) Using the different test procedures available for the Multiplate® comprehensive information on platelet function and antiplatelet effects of betaine vs. basal values was assessed. Agonists were prepared in 1 ml solutions according to Multiplatc technical sheets and were used in the following volumes or concentrations: ASPI test: 20 μL, COL test: 20 μL, TRAP test: 20 μL, ADP test: 20 μL, RISTO test: 40 μL (1.2 mg/ml).

[2] = test system: platelet aggregation in whole blood, activation by collagen; test: Multiplate whole blood aggregometry, COL test, blood supplemented with betaine (Example 1); type: cell-based, human (CAD patients); set-up: Collagen aggregation / Collagen aggregation, mean: unit not given here; conditions: for Collagen aggregation / Collagen aggregation, mean: betaine 50 μg/ml; for inhibition at 50 µg/mL: Homo sapiens, Platelet
Method: (§4) Protocol Blood of 24 CAD patients on Aspirin or Aspirin+Clopidogrel is supplemented with saline or Betaine (50 μg/ml) and tested for Whole Blood Aggregometry using a Multiplate® (Dynabyte Informations System GmbH, Munich) whole blood aggregometer different agonists where used i.e.:
(§5) ASPI test: Activation by arachidonic acid to detect Aspirin effects. COL test: Collagen activates the collagen receptor, which leads to a release of endogenous arachidonic acid, which is converted to TXA2 and activates the platelet. ADP test: ADP stimulates platelet activation by the ADP receptors. The most important ADP receptor (P2Y12) is blocked by clopidogrel, prasugrel and ticlopidine. TRAP test: TRAP-6 stimulates the thrombin receptor on the platelet surface. TRAP test allows detecting GPIIb/IIIa antagonists.

[3] = test system: platelet aggregation in whole blood, activation by TRAP-6; test: Multiplate whole blood aggregometry, TRAP test, blood supplemented with betaine (Example 1); type: cell-based, human (CAD patients); set-up: TRAP aggregation / TRAP aggregation, mean: unit not given here; conditions: for TRAP aggregation / TRAP aggregation, mean: betaine 50 μg/ml; for inhibition at 50 µg/mL: Homo sapiens, Platelet, betaine 50 μg/ml vs. saline
Method: as §4, §5

[4] = test system: whole blood aggregation, AspiTest (arachidonic acid); test: Whole blood aggregation (Multiplate) ASPI test before and one hour after oral betaine (Example 11); type: in vivo, human (patients); conditions: for AspiTest aggregation (AUC): individual patients (one line per patient), one hour after 4 g betaine oral, on aspirin 100 mg/day
Method: as §1, §2, §3

[5] = test system: platelet aggregation in whole blood, activation by arachidonic acid; test: Multiplate whole blood aggregometry, ASPI test, blood supplemented with betaine (Example 1); type: cell-based, human (CAD patients); set-up: AspiTest aggregation / AspiTest aggregation, mean: unit not given here; conditions: for AspiTest aggregation / AspiTest aggregation, mean: betaine 50 μg/ml; for inhibition at 50 µg/mL: Homo sapiens, Platelet
Method: as §4, §5

[6] = test system: whole blood aggregation, Collagen; test: Whole blood aggregation (Multiplate) COL test before and one hour after oral betaine (Example 11); type: in vivo, human (patients); conditions: for Collagen aggregation (AUC): individual patients (one line per patient), one hour after 4 g betaine oral, on aspirin 100 mg/day
Method: as §1, §2, §3

[7] = test system: whole blood aggregation, TRAP test; test: Whole blood aggregation (Multiplate) TRAP test before and one hour after oral betaine (Example 11); type: in vivo, human (patients); conditions: for TRAP aggregation (AUC): individual patients (one line per patient), one hour after 4 g betaine oral, on aspirin 100 mg/day
Method: as §1, §2, §3

[8] = test system: platelet aggregation in whole blood, activation by ADP; test: Multiplate whole blood aggregometry, ADP test, blood supplemented with betaine (Example 1); type: cell-based, human (CAD patients); set-up: ADP aggregation / ADP aggregation, mean: unit not given here; conditions: for ADP aggregation / ADP aggregation, mean: betaine 50 μg/ml; for inhibition at 50 µg/mL: Homo sapiens, Platelet, betaine 50 μg/ml vs. saline
Method: as §4, §5

[9] = test system: whole blood aggregation, ADP; test: Whole blood aggregation (Multiplate) ADP test before and one hour after oral betaine (Example 11); type: in vivo, human (patients); conditions: for ADP aggregation (AUC): individual patients (one line per patient), one hour after 4 g betaine oral, on aspirin 100 mg/day
Method: as §1, §2, §3

[10] = after 4 g betaine oral, patients on aspirin 100 mg/day
[11] = ASA and ASA/clopidogrel non responders, individual patients (one line per patient)
[12] = betaine 50 μg/ml vs. saline, p<0.05
[13] = individual patients # 1-24 (one line per patient), blood of CAD patients on aspirin or aspirin+clopidogrel
[14] = ASA poor responders, after 4 g betaine oral
[15] = 20 patients, after 4 g betaine by oral route
[16] = ASA responders, after 4 g betaine oral

Structure (SMILES): C[N+](C)(C)CC(=O)O [betaine, glycine betaine of formula (CH3)3N^+(CH2) COO^−]
- Difference Vs. basal, Ristocetin ([1]; 20 patients, after 4 g betaine by oral route, P Student 0.012): −37%
- Mean of AUC aggregations, Ristocetin ([1]; 20 patients, after 4 g betaine by oral route, basal mean 53.4): 33.6
- Difference Vs. basal, Ristocetin ([1]; ASA poor responders, after 4 g betaine oral, P Student 0.22): −24%
- Ristocetin aggregation (AUC) ([1]; ASA poor responders): 62 and 78 and 123 and 81 and 30 and 2 and 43 and 11
- Difference Vs. basal, Ristocetin ([1]; ASA responders, after 4 g betaine oral, P Student 0.031): −52%
- Ristocetin aggregation (AUC) ([1]; ASA responders): 39 and 10 and 42 and 23 and 35 and 6 and 3 and 21 and 14 (2×) and 26 and 9
- effect on platelet function, ristocetin aggregation (agglutination) [1, 10]: ameliorated significantly
- Ristocetin aggregation, mean ([1]; mean of 8 ASA poor responders after 4 g betaine oral, basal mean 70.75): 53.75
- Ristocetin aggregation, mean ([1]; mean of 12 ASA responders after 4 g betaine oral, basal mean 41.83): 20.17
- Collagen aggregation [2, 11]: 42 and 30 and 76 and 91 (2×) and 75 (2×) and 88 and 21 and 24
- inhibition at 50 µg/mL ([2]; ASA and ASA/clopidogrel non responders, betaine 50 μg/ml vs. saline, P (Student) 0.0242, read-out: Additional inhibition, Collagen): 17%
- inhibition at 50 µg/mL ([2]; all 24 patients, betaine 50 μg/ml vs. saline, P (Student) 0.0006, read-out: Betaine additional inhibition, Collagen): 20%
- synergistic effect with aspirin and/or clopidogrel on collagen [2, 12]: significant
- Collagen aggregation [2, 13]: 4 and 3 (2×) and 35 and 21 (2×) and 75 (2×) and 91 (2×) and 26 and 34 and 29 and 59 and 25 and 24 and 42 and 2 and 30 and 8 and 17 and 76 and 88 and 46
- Collagen aggregation, mean ([2]; mean of 10 ASA and ASA/clopidogrel non responders, saline mean 74.4): 61.3
- Collagen aggregation, mean ([2]; mean of 24 patients, saline mean 48.46): 38.54
- TRAP aggregation [3, 11]: 155 and 141 and 93 and 179 and 120 and 100 and 67 and 103 (2×) and 29
- inhibition at 50 µg/mL ([3]; ASA and ASA/clopidogrel non responders, P (Student) 0.093, read-out: Additional inhibition, TRAP): 19%
- inhibition at 50 µg/mL ([3]; all patients, P (Student) 0.0392, read-out: Betaine additional inhibition, TRAP): 13%
- TRAP aggregation [3, 13]: 60 (2×) and 102 and 79 and 67 and 103 (2×) and 87 and 84 and 31 and 153 and 152 and 29 and 155 and 141 and 83 and 30 and 22 and 93 and 179 and 120 and 100 and 127
- TRAP aggregation, mean ([3]; mean of 10 ASA and ASA/clopidogrel non responders, saline mean 133.7): 109
- TRAP aggregation, mean ([3]; mean of patients, saline mean 108): 93.91
- Difference Vs. basal, AspiTest ([4]; 20 patients, after 4 g betaine by oral route, P Student 0.57): 5%
- Mean of AUC aggregations, AspiTest ([4]; 20 patients, after 4 g betaine by oral route, basal mean 23.05): 24.15
- Difference Vs. basal, AspiTest [4, 14]: 3%
- AspiTest aggregation (AUC) ([4]; ASA poor responders): 24 and 74 and 81 and 69 and 46 and 27 and 35 and 52
- Difference Vs. basal, AspiTest ([4]; ASA responders, after 4 g betaine oral, P Student 0.6): 14%
- AspiTest aggregation (AUC) ([4]; ASA responders): 11 and 7 and 4 (2×) and 9 (2×) and 5 and 1 and 3 (2×) and 6 and 13
- AspiTest aggregation, mean ([4]; mean of 8 ASA poor responders after 4 g betaine oral, basal mean 49.375): 51
- AspiTest aggregation, mean ([4]; mean of 12 ASA responders after 4 g betaine oral, basal mean 5.5): 6.25
- AspiTest aggregation [5, 11]: 121 and 75 and 97 and 125 and 87 and 94 (2×) and 84 and 49 and 61
- inhibition at 50 µg/mL ([5]; ASA and ASA/clopidogrel non responders, betaine 50 μg/ml vs. saline, P (Student) 0.0043, read-out: Additional inhibition, AspiTest): 20%
- inhibition at 50 µg/mL ([5]; all 24 patients, betaine 50 μg/ml vs. saline, P (Student) 0.0109, read-out: Betaine additional inhibition, AspiTest): 17%
- synergistic effect with aspirin and/or clopidogrel on AspiTest [5, 12]: significant
- AspiTest aggregation [5, 13]: 10 and 22 and 54 and 18 and 84 and 94 (2×) and 62 and 29 and 21 and 49 and 17 (2×) and 5 and 61 and 121 and 13 and 75 and 12 and 6 and 97 and 125 and 87 and 77
- AspiTest aggregation, mean ([5]; mean of 10 ASA and ASA/clopidogrel non responders, saline mean 111.1): 88.7
- AspiTest aggregation, mean ([5]; mean of 24 patients, saline mean 62.54): 52.08
- Difference Vs. basal, Collagen ([6]; 20 patients, after 4 g betaine by oral route, P Student 0.045): −19%
- Mean of AUC aggregations, Collagen ([6]; 20 patients, after 4 g betaine by oral route, basal mean 30.35): 24.65
- Difference Vs. basal, Collagen [6, 14]: −1%
- Collagen aggregation (AUC) ([6]; ASA poor responders): 47 and 48 and 32 and 18 and 10 and 58 and 65 and 57
- Difference Vs. basal, Collagen ([6]; ASA responders, after 4 g betaine oral, P Student 0.039): −41%
- Collagen aggregation (AUC) ([6]; ASA responders): 11 and 7 and 29 and 12 and 23 and 4 and 10 (2×) and 3 (2×) and 30 and 16
- effect on platelet function, collagen aggregation [6, 10]: ameliorated significantly
- Collagen aggregation, mean ([6]; mean of 8 ASA poor responders after 4 g betaine oral, basal mean 42.375): 41.875
- Collagen aggregation, mean ([6]; mean of 12 ASA responders after 4 g betaine oral, basal mean 22.33): 13.17
- Difference Vs. basal, TRAP [7, 15]: 0%
- Mean of AUC aggregations, TRAP ([7]; 20 patients, after 4 g betaine by oral route, basal mean 91.95): 91.9
- Difference Vs. basal, TRAP [7, 14]: 3%
- TRAP aggregation (AUC) ([7]; ASA poor responders): 106 (2×) and 66 (2×) and 133 and 103 and 60 and 95
- Difference Vs. basal, TRAP [7, 16]: −2%
- TRAP aggregation (AUC) ([7]; ASA responders): 64 and 154 and 115 and 136 and 131 and 29 and 80 and 77 (2×) and 67 and 104 and 69
- TRAP aggregation, mean ([7]; mean of 8 ASA poor responders after 4 g betaine oral, basal mean 89): 91.875
- TRAP aggregation, mean ([7]; mean of 12 ASA responders after 4 g betaine oral, basal mean 93.92): 91.92
- ADP aggregation [8, 11]: 173 and 70 and 89 (2×) and 86 and 90 and 63 and 77 and 83 and 56
- inhibition at 50 µg/mL ([8]; ASA and ASA/clopidogrel non responders, P (Student) 0.449, read-out: Additional inhibition, ADP): 5%
- inhibition at 50 µg/mL ([8]; all patients, P (Student) 0.067, read-out: Betaine additional inhibition, ADP): 8%
- ADP aggregation [8, 13]: 44 and 1 and 68 and 46 and 63 and 77 and 82 and 57 and 83 and 100 and 81 and 56 and 173 and 4 and 70 and 29 and 6 and 13 and 89 (2×) and 86 and 90 and 115
- ADP aggregation, mean ([8]; mean of 10 ASA and ASA/clopidogrel non responders, saline mean 91.8): 87.6
- ADP aggregation, mean ([8]; mean of patients, saline mean 71.78): 66.17
- Difference Vs. basal, ADP [9, 15]: 2%
- Mean of AUC aggregations, ADP ([9]; 20 patients, after 4 g betaine by oral route, basal mean 55.55): 56.5
- Difference Vs. basal, ADP ([9]; ASA poor responders, after 4 g betaine oral, P Student 0.5): −7%
- ADP aggregation (AUC) ([9]; ASA poor responders): 71 and 53 and 66 and 60 and 38 and 32 and 70 and 40
- Difference Vs. basal, ADP [9, 16]: 8%
- ADP aggregation (AUC) ([9]; ASA responders): 2 and 121 and 64 (2×) and 80 and 93 and 14 and 51 and 47 and 44 and 75 and 45
- ADP aggregation, mean ([9]; mean of 8 ASA poor responders after 4 g betaine oral, basal mean 57.75): 53.75
- ADP aggregation, mean ([9]; mean of 12 ASA responders after 4 g betaine oral, basal mean 54.08): 58.33
